Key:
Type in all cases: in vivo
[1] = test system: Green Peach Aphid (Myzus persicae); assay: Green peach aphid mortality on sprayed bell pepper plants; conditions: 120 h, spray on infested bell pepper plants, determined after 5 days, read-out: mortality in comparison with untreated controls
Source text: (§1) The active compounds were formulated in cyclohexanone as a 10,000 ppm solution supplied in tubes. The tubes were inserted into an automated electrostatic sprayer equipped with an atomizing nozzle and they served as stock solutions for which lower dilutions were made in 50% acetone:50% water (v/v). A nonionic surfactant (Kinetic®) was included in the solution at a volume of 0.01% (v/v).
Bell pepper plants at the first true-leaf stage were infested prior to treatment by placing heavily infested leaves from the main colony on top of the treatment plants. Aphids were allowed to transfer overnight to accomplish an infestation of 30-50 aphids per plant and the host leaves were removed. The infested plants were then sprayed by an automated electrostatic plant sprayer equipped with an atomizing spray nozzle. The plants were dried in the sprayer fume hood, removed, and then maintained in a growth room under fluorescent lighting in a 24-hr photoperiod at about 25° C. and about 20-40% relative humidity. Aphid mortality on the treated plants, relative to mortality on untreated control plants, was determined after 5 days.

[2] = test system: Cotton Aphid (Aphis gossypii); assay: Cotton aphid mortality on dipped cotton cotyledons; conditions: 120 h, mortality counts after 5 days, read-out: mortality in comparison with untreated controls
Source text: The active compounds were formulated in 50:50 (vol:vol) acetone: water and 100 ppm Kinetica™ surfactant.
Cotton plants at the cotyledon stage (one plant per pot) weare infested by placing a heavily infested leaf from the main colony on top of each cotyledon. The aphids were allowed to transfer to the host plant overnight, and the leaf used to transfer the aphids was removed. The cotyledons were dipped in the test solution and allowed to dry. After 5 days, mortality counts were made.

[3] = test system: Cowpea Aphid (Aphis craccivora); assay: Cowpea aphid test on sprayed potted cowpea plants; conditions: spray on cowpea plants, population reduction assessed after 24, 72 and 120 hours, read-out: mortality in comparison with untreated controls
Experimental: The active compound was dissolved at the desired concentration in a mixture of 1:1 (vol:vol) distilled water:acetone. The test solution was prepared at the day of use.
Potted cowpea plants colonized with approximately 100-150 aphids of various stages were sprayed after the pest population had been recorded. Population reduction was assessed after 24, 72, and 120 hours.

[4] = test system: Silverleaf Whitefly (bemisia argentifolii); assay: Silverleaf whitefly adult mortality on sprayed cotton plants; conditions: 72 h, spray on cotton plants, whitefly adults, assessed 3 days after treatment, read-out: mortality in comparison with untreated controls
Source text: as §1, with “they serve” for “they served”, “dilutions are” for “dilutions were”
Cotton plants at the cotyledon stage (one plant per pot) were sprayed by an automated electrostatic plant sprayer equipped with an atomizing spray nozzle. The plants were dried in the sprayer fume hood and then removed from the sprayer. Each pot was placed into a plastic cup and about 10 to 12 whitefly adults (approximately 3-5 days old) were introduced. The insects were collected using an aspirator and a nontoxic Tygon® tubing connected to a barrier pipette tip. The tip, containing the collected insects, were then gently inserted into the soil containing the treated plant, allowing insects to crawl out of the tip to reach the foliage for feeding. Cups were covered with a reusable screened lid. Test plants were maintained in a growth room at about 25° C. and about 20-40% relative humidity for 3 days, avoiding direct exposure to fluorescent light (24 hour photoperiod) to prevent trapping of heat inside the cup. Mortality was assessed 3 days after treatment, compared to untreated control plants.

Measured: mortality at 500 ppm

FC(F)(F)c1nc(-c2cccnc2)sc1-c1ccn(-c2ncccn2)n1 [C.2, 2-[3-(2-Pyridin-3-yl-4-trifluoromethyl-thiazol-5-yl)-pyrazol-1-yl]-pyrimidine]
≥ 75%: [1] | [2] | [3]

Clc1nc(-c2cccnc2)sc1-c1ccccn1 [C.4, 4-chloro-5-(2-pyridyl)-2-(3-pyridyl)thiazole]
≥ 75%: [1] | [3] | [4]

Reference: US20140249024A1, “Pesticidal Methods Using Substituted 3-pyridyl Thiazole Compounds and Derivatives for Combating Animal Pests II” (BASF SE, priority 2011, published 2014)
